Measurements taken from article PMC13242511, “Disrupting Notch signalling by a small molecule inhibiting dihydroorotate dehydrogenase activity” (Scientific Reports, 2026).
Where two headings read alike, the source gives them in different places.

Key:
Notch signalling = assay: Notch reporter assay (12xCSL firefly luciferase / renilla luciferase, HEK293T Notch1ΔE reporter cell line clone #A1-11); assay type: cell-based; set-up: AUC Notch: scale not given here; conditions: for Bottom (Emax): Emax indicated independent from assay constraints, in % (unit assumed); for AUC Notch: area under the 14-point dose-response curve, replicates averaged
From the text: To identify novel Notch inhibitors in an unbiased manner, we generated a novel Notch reporter construct, which records the level of Notch signalling immediately downstream of receptor activation rather than further downstream in the signalling cascade, for example at the level of Hes and Hey proteins (Fig. 1B). […] The reporter construct carries piggy-bac sequences at both ends of the promoter-reporter cassette as well as cSH4 insulator elements to reduce transcriptional noise[21] and was transfected into HEK293T cells. To achieve a robust level of Notch receptor activity in the HEK293T reporter cell line and to confine the search for inhibitors to compounds affecting the receptor function and eliminating the need for ligand activation, a truncated ligand-independent version of the Notch1 receptor, mimicking an S2-cleaved Notch1 receptor (Notch1ΔE) and spontaneously activated by S3-cleavage[22] (Fig. 1C) was introduced into the cell line carrying the reporter construct (Fig. 1D). In addition, an HSV-TK-renilla luciferase plasmid was introduced into the cell line as an internal control for normalisation of the reporter expression (Fig. 1D).
A de novo Notch reporter construct, composed of six dimeric CSL binding sites linked to a basic b-globin promoter and followed by a firefly luciferase gene and a PEST degradation domain was synthesised (GeneArt). The construct was stably introduced into HEK293T cells, and zeocin (0.1 mg/ml) or Puromycin (0.05 mg/ml (ThermoFisher, cat #R25001, #A1113803) were used as selection markers. A clonal cell line (clone #A1) with robust renilla expression and enhanced firefly luciferase expression upon transient transfection of Notch1 ICD or Notch1ΔE constructs was selected, and a UB6 promoter-Notch1DE construct was stably introduced into this cell line using Blasticidin (0.1 mg/ml; ThermoFisher, cat #A1113903) as a selection marker. Stable cell lines were generated by serial dilution and only clonal colonies were selected for further evaluation. To measure luciferase reporter activity, cells were washed in cold PBS, detached, and collected in pre-warmed cell culture medium and centrifugated for five min at 200xg. The cell pellet was resuspended in medium, cells were counted, and 4,000 cells were seeded in each well of a white 384 well plate (Corning #3670) in 20 µl medium containing either DMSO or the GSI DAPT (N-[N-(3,5-Difluorophenacetyl)-L-alanyl]-S-phenylglycine t-butyl ester, Sigma-Aldrich, cat #565784-M) and incubated for 24 h. The efficacy of the reporter gene system was determined by monitoring the level of luciferase activation in the absence or presence of different amounts of DAPT in several cell clones. Luciferase activity was assessed using the dual-GLO luciferase detection kit from Promega (cat # E2920), following the manufacturer’s instructions. A minimum of two technical replicates were measured per clone using a SpectraMaxi3 plate reader (Molecular Devices). Reporter activity of different clones and in response to DAPT was assessed by normalising firefly (Notch activity) to renilla luciferase signals. Normalised signals of individual clones cultivated in DMSO were then compared to corresponding signals generated with DAPT-treated cells. The cell clone with the strongest signal to control ratio (DMSO to DAPT) was then selected for further exploration (clone #A1-11).
37,966 compounds were spotted by the compound center at SciLifeLab (https://www.scilifelab.se/) on a total of 120 plates (Greiner #781080) at a fixed concentration of 10 µM and the screening process spanned five consecutive sessions. The layout of each plate contained one column for DMSO and one for DAPT controls to determine the quality and reliability of the data. DAPT controls were spotted at 10 µM and DMSO was spotted in an equimolar volume. In addition, plates spotted with only DMSO were utilized to investigate the impact of plate effects before and after each session. […]

γ-secretase complex = γ-secretase complex (Homo sapiens, UniProt P49768); assay: APP-C99 counter assay (GSI reporter assay); assay type: cell-based; set-up: AUC APP: scale not given here; conditions: for Hill-slope / curve fit information: 14p APP assay DR, bottom constrained to Emax of positive control LY-411575; for AUC APP: area under the 14-point dose-response curve, replicates averaged
Protocol: To this end, we used a previously established reporter gene-based GSI assay (APP-C99) (Fig. 3A), which measures γ-secretase activity through cleavage of amyloid precursor protein (APP), another protein processed by the γ-secretase complex[24]
Plasmids for APP and luciferase are described in[24] and the renilla plasmid described above generated for this project was used to normalize firefly values. 24 h post transfection cells were seeded on compound plates and cells were cultivated for 24 h before luciferase signals were read, as described.
Two-fold concentrations of compounds were diluted in 10 µl cell culture medium and brought to one-fold by seeding 10 µl containing 4000 cells of the respective cell type on each well of a 384-well plate, as described above. Analogous to the previous assays, all plates contained one DMSO and DAPT control column with the Notch reporter cell line (#A1-11) and a DMSO only and Notch inhibitor control plate was read before the measuring the screening plates. In addition, DAPT and DMSO were spotted in a dose response fashion, and a minimum of four replicates were read. Dose-responses of compounds were recorded in triplicates for each concentration reading out the dual luciferase reporters, as described above. Dose response assays were read together in one session. To measure compound effects, the different assays dose–response curves were fitted using the log(inhibitor) vs. response – Variable slope (model: Y = Bottom + (Top–Bottom)/(1 + 10^((LogIC50-X)*HillSlope)) equation.
A DMSO plate was read before measuring luciferase activity of compound spotted plates. APP firefly luciferase reporter assays were read with a signal integration time of 0.1 s, instead of 0.5 s used for the Notch reporter to reduce signal overlap between wells. […] The area-under-the-curve (AUC) was calculated on dose–response curves using Graphpad Prism.

[1] = Homo sapiens, HEK-293T, 14p Notch assay DR, bottom constrained to Emax of positive control DAPT, read-out: approximated IC50
[2] = Homo sapiens, HEK-293T, 14p Notch assay DR, log10 value, bottom constrained to Emax of positive control DAPT, read-out: approximated LogIC50 (converted)
[3] = Homo sapiens, HEK-293T, 14-point dose-response, Fig. 4, read-out: approximated IC50, Notch reporter assay

Structure (SMILES)	IC50 (Notch signalling; [1]) [µM]	IC50 (Notch signalling; [2]) [µM]	Hill-slope (γ-secretase complex)	remaining activity at 10 µM (γ-secretase complex; 24 h, 10µM, APP-C99 counter assay, read-out: 3p-DR in % of DMSO counter) [%]	remaining activity at 25 µM (γ-secretase complex; 24 h, 25µM, APP-C99 counter assay, read-out: 3p-DR in % of DMSO counter) [%]	remaining activity at […] (γ-secretase complex; 24 h, 1,25µM, APP-C99 counter assay, read-out: 3p-DR in % of DMSO counter) [%]	AUC APP (γ-secretase complex)	Bottom (Emax) (Notch signalling; 14p Notch assay DR)	activity at 10 µM (Notch signalling; Homo sapiens, HEK-293T, 10 µM, primary screen, 24 h, unit from Fig. 2 legend, read-out: Primary screen at 10 µM (Notch reporter signal)) [%]	activity at 10 µM (Notch signalling; Homo sapiens, HEK-293T, 10 µM, three-dose confirmation screen, unit from Fig. 2 legend, read-out: Hit confirmation at 10 µM (Notch reporter signal)) [%]	activity at 10 µM (Notch signalling; Homo sapiens, HEK-293T, 10µM, 3-point DR confirmation screen, Notch reporter assay, read-out: inhibitor ratio in % of DMSO in 3 point DR) [%]	activity at 10 µM (Notch signalling; Homo sapiens, HEK-293T, 10 µM, sheet conf vs counter 10 µM, same values as 3-point DR confirmation screen, read-out: Confirmation screen) [%]	activity at 25 µM (Notch signalling; Homo sapiens, HEK-293T, 25µM, 3-point DR confirmation screen, Notch reporter assay, read-out: inhibitor ratio in % of DMSO in 3 point DR) [%]	activity at 25 µM (Notch signalling; Homo sapiens, HEK-293T, 25 µM, Notch reporter 3-point dose-confirmation assay, sheet "conf vs counter 25 µM", read-out: Confirmation screen) [%]	activity (Notch signalling; Homo sapiens, HEK-293T, 1,25µM, 3-point DR confirmation screen, Notch reporter assay, read-out: inhibitor ratio in % of DMSO in 3 point DR) [%]	AUC Notch (Notch signalling)	IC50 (Notch signalling; [3]) [µM]	curve fit information (γ-secretase complex)	approximated IC50, Notch reporter assay (Notch signalling; 14-point dose-response, Fig. 4)
COc1cc(Nc2nc(-c3cccc(NC(C)=O)c3)cn3ccnc23)cc(OC)c1OC [CBK038093]	5.6	5.01	0.0389	180	242	132	493.6	21.1	46.2	56.1	56.1	56.1	41.5	41.5	96.6	304.0	–	–	–
Fc1ccc2[nH]c3c(c2c1)CCOC31CCN(Cc2ccccc2-c2ccccc2)CC1 [CBK039913]	1.2	1.26	0.0284	–	–	–	726.2	44.4	–	–	–	–	–	–	–	588.0	–	–	–
COc1ccc2[nH]c3c(c2c1)CCOC31CCN(Cc2ccccc2-c2ccccc2)CC1 [CBK040114]	1.3	1.26	0.0153	–	–	–	713.8	45.9	–	–	–	–	–	–	–	576.0	1.4	–	–
c1ccc(-c2ccccc2CN2CCC3(CC2)OCCc2c3[nH]c3ccccc23)cc1 [CBK040201]	2	2	0.0232	–	–	–	739.3	50.0	–	–	–	–	–	–	–	592.0	–	–	–
Cc1ccccc1CN1CCC2(CC1)OCCc1c2[nH]c2ccc(F)cc12 [CBK040334]	8.9	7.94	0.00509	–	–	–	704.0	~ 28,93	–	–	–	–	–	–	–	607.0	> 5	IC50 indeterminate	–
Cc1ccccc1CN1CCC2(CC1)OCCc1c2[nH]c2ccc(Br)cc12 [CBK040353]	1.7	1.58	0.0279	–	–	–	724.9	48.2	–	–	–	–	–	–	–	584.0	1.8	–	–
Cc1ccccc1CN1CCC2(CC1)OCCc1c2n(C)c2ccccc12 [CBK040366]	–	–	4.29e-13	–	–	–	658.0	104.0	–	–	–	–	–	–	–	632.0	–	IC50 indeterminate	Indeterminate

More lines, main results first:

IC50 (Notch signalling; [1]) [µM]	IC50 (Notch signalling; [2]) [µM]	Hill-slope (γ-secretase complex)	remaining activity at 10 µM (γ-secretase complex; 24 h, 10µM, APP-C99 counter assay, read-out: 3p-DR in % of DMSO counter) [%]	remaining activity at 25 µM (γ-secretase complex; 24 h, 25µM, APP-C99 counter assay, read-out: 3p-DR in % of DMSO counter) [%]	remaining activity at […] (γ-secretase complex; 24 h, 1,25µM, APP-C99 counter assay, read-out: 3p-DR in % of DMSO counter) [%]	AUC APP (γ-secretase complex)	Structure (SMILES)	Bottom (Emax) (Notch signalling; 14p Notch assay DR)	activity at 10 µM (Notch signalling; Homo sapiens, HEK-293T, 10 µM, primary screen, 24 h, unit from Fig. 2 legend, read-out: Primary screen at 10 µM (Notch reporter signal)) [%]	activity at 10 µM (Notch signalling; Homo sapiens, HEK-293T, 10 µM, three-dose confirmation screen, unit from Fig. 2 legend, read-out: Hit confirmation at 10 µM (Notch reporter signal)) [%]	activity at 10 µM (Notch signalling; Homo sapiens, HEK-293T, 10µM, 3-point DR confirmation screen, Notch reporter assay, read-out: inhibitor ratio in % of DMSO in 3 point DR) [%]	activity at 10 µM (Notch signalling; Homo sapiens, HEK-293T, 10 µM, sheet conf vs counter 10 µM, same values as 3-point DR confirmation screen, read-out: Confirmation screen) [%]	activity at 25 µM (Notch signalling; Homo sapiens, HEK-293T, 25µM, 3-point DR confirmation screen, Notch reporter assay, read-out: inhibitor ratio in % of DMSO in 3 point DR) [%]	activity at 25 µM (Notch signalling; Homo sapiens, HEK-293T, 25 µM, Notch reporter 3-point dose-confirmation assay, sheet "conf vs counter 25 µM", read-out: Confirmation screen) [%]	activity (Notch signalling; Homo sapiens, HEK-293T, 1,25µM, 3-point DR confirmation screen, Notch reporter assay, read-out: inhibitor ratio in % of DMSO in 3 point DR) [%]	AUC Notch (Notch signalling)	IC50 (Notch signalling; [3]) [µM]	curve fit information (γ-secretase complex)	approximated IC50, Notch reporter assay (Notch signalling; 14-point dose-response, Fig. 4)
23	25.1	0.0798	–	–	–	545.0	COc1cc(Nc2cncc(-c3cccc(N)c3)n2)cc(OC)c1OC [CBK065120]	47.4	–	–	–	–	–	–	–	329.0	–	–	–
27	25.1	0.0468	–	–	–	573.8	COc1cc(Nc2cncc(-c3cccc(NC(C)=O)c3)n2)cc(OC)c1OC [CBK065162]	40.8	–	–	–	–	–	–	–	335.0	–	–	–
> 40	> 40	-0.00462	–	–	–	501.6	COc1cc(Nc2cncc(-c3cccc(N(C)C)c3)n2)cc(OC)c1OC [CBK065722]	82.6	–	–	–	–	–	–	–	354.0	–	–	–
27	25.1	0.0659	–	–	–	523.0	COc1ccccc1-c1cn2ccnc2c(Nc2cc(OC)c(OC)c(OC)c2)n1 [CBK066148]	58.8	–	–	–	–	–	–	–	336.0	–	–	–
–	–	-4.6e-12	–	–	–	549.2	CC(=O)Nc1cccc(-c2cn3ccnc3c(Nc3ccccc3)n2)c1 [CBK066160]	87.0	–	–	–	–	–	–	–	362.0	–	IC50 indeterminate	–
36	39.8	-8.75e-10	–	–	–	496.5	COc1cc(-c2cn3ccnc3c(Nc3ccccc3)n2)cc(OC)c1OC [CBK066200]	65.6	–	–	–	–	–	–	–	329.0	–	IC50 indeterminate	–
